Assay results from patent US20260234144A1 (TAY THERAPEUTICS LIMITED, priority 2023, published 2026).

Key:
[1] = system: R223X stop codon in the mutated luciferase gene, ADXC8 luciferase reporter cell line; assay: cells; format: cell-based; settings: 24 h, ADXC8 cells, 24 hours; for EC (100% of 200 uM G418 response): read-out: pC100%, negative logarithm of the concentration giving the same response as 200 μM G418; for Emax: read-out: Fold Over Control, maximum fold response relative to 200 μM G418
[2] = system: R213X mutation in the p53 gene, HDQ-P1 cells; assay: Read-through of R213X mutation in HDQ-P1 cells: truncated and full-length p53 by automated capillary electrophoresis western analysis; format: cell-based; settings: Homo sapiens; for EC (50% of 200 uM G418 response): pC50% NMD: production of truncated p53, concentration giving 50% of the response of 200 μM G418, 24 h; for EC (100% of 200 uM G418 response): pC100% RT: production of full-length p53, concentration giving the same response as 200 μM G418, 24 h
Procedure: The ability of compounds to promote read-through in cells was assessed using the HDQ-P1 cell line which contain the R213X mutation in the p53 gene. […] Changes in the protein levels of p21, a direct downstream target of p53, were also determined as evidence of functional p53 protein production.
HDQ-P1 cells (R213X) were treated with DMSO (0.3%), or test article for 24 h at various concentrations. Cells were washed once with ice cold 1×PBS and lysed in M-Per protein extraction reagent (ThermoFisher), Benzonase® Nuclease and protease inhibitor mixture (Roche) centrifuged at 4° C. for 15 min at 16 000×g, the supernatants, termed cell extracts, were collected and total proteins were quantified with Bradford protein assay kit (ThermoFisher). Briefly, mixtures of cell lysates (protein concentration 0.5 mg/mL) and the fluorescent master mix were heated at 95° C. for 5 min. […] Signals were generated using BioTechne anti-mouse detection module and anti-rabbit NIR detection module. […] As an additional loading control, total protein levels were assessed with the ProteinSimple protein normalisation module. The data were acquired and analysed using the inbuilt Compass software (ProteinSimple) with the high dynamic range detection profile, which uses multiple substrate injections and exposure times. Electropherograms were converted to pseudo-blots and presented in figures for ease of visualization.
Concentration effect curves for both the production of truncated and full-length p53 were analysed using non-linear regression using the CDD Vault from Collaborative Drug Discovery (Burlingame, CA). […] The bottom and top of the curves were constrained to 0 and the maximum measured response respectively. From the fitted curves, the software derived C100% or C50% values (the concentration giving the same or 50% of the response of 200 μM G418) for each compound. The negative logarithm of C50% or C100% is reported as pC50% NMD or pC100% RT for the production of truncated or full-length p53 respectively (Table 2).

SMILES | EC (100% of 200 uM G418 response) [1] [µM] | EC (50% of 200 uM G418 response) [2] [µM] | EC (100% of 200 uM G418 response) [2] [µM] | Emax [1] [%]
CCNc1nc(N[C@@H]2CCN(C)C2)nc2nc(C)c3c(c12)CCC3 [Example 396] | 0.1 to 1 | 1 to 10 | 1 to 10 | –
CCNc1nc(N[C@@H]2CCN(C)C2)nc2nc3c(c(C)c12)CCC3 [Example 234, (R)—N^4-ethyl-5-methyl-N^2-(1-methylpyrrolidin-3-yl)-7,8-dihydro-6H-cyclopenta[5,6]pyrido[2,3-d]pyrimidine-2,4-diamine] | 0.1 to 1 | 0.1 to 1 | 0.1 to 1 | –
CNc1nc(N[C@H]2CN(C)C[C@@H]2O)nc2nc(C)c3c(c12)CCC3 [Example 363] | 0.1 to 1 | 0.1 to 1 | 1 to 10 | 100 to 3000
CNc1nc(N[C@H]2CN(C)C[C@@H]2F)nc2nc3c(c(C)c12)CCC3 [Example 362] | 1 to 10 | 0.1 to 1 | 1 to 10 | 100 to 3000
CNc1cc(N[C@H]2CN(C)C[C@H]2F)nc2nc3c(c(C)c12)CCC3 [Example 422] | 0.1 to 1 | 0.1 to 1 | 0.1 to 1 | –
CNc1nc(NC2CCN(Cc3ccccc3O)CC2)nc2nc3c(c(C)c12)CCC3 [Example 656] | 0.01 to 0.1 | 0.1 to 1 | 0.1 to 1 | 100 to 3000
CCNc1nc(NC2CCN(C)CC2)nc2nc(C)cc(C)c12 [Example 322] | 0.1 to 1 | 1 to 10 | 1 to 10 | –
CNc1nc(N[C@H]2CN(C)C[C@@H]2O)nc2nc(C)cc(C)c12 [Example 338] | 1 to 10 | 1 to 10 | – | 100 to 3000
Cc1cc(C)c2c(N)nc(N[C@@H]3CCCNC3)nc2n1 [Example 225, (R)-5,7-dimethyl-N^2-(piperidin-3-yl)pyrido[2,3-d]pyrimidine-2,4-diamine] | 0.1 to 1 | 0.1 to 1 | 1 to 10 | –
CN1CCC(Nc2nc(N)c3c4c(c(-c5ccccc5)nc3n2)CCC4)CC1 [Example 45, N^3-(1-methylpiperidin-4-yl)-6-phenyl-8,9-dihydro-7H-cyclopenta[4,5]pyrido[2,3-d]pyrimidine-1,3-diamine] | 0.1 to 1 | 1 to 10 | 1 to 10 | 100 to 3000
CNc1nc(N[C@H]2CN(C)C[C@@H]2OC)nc2nc(C)cc(C)c12 [Example 228, N^2-((3S,4S)-4-methoxy-1-methylpyrrolidin-3-yl)-N^4,5,7-trimethylpyrido[2,3-d]pyrimidine-2,4-diamine] | 0.1 to 1 | 0.1 to 1 | 1 to 10 | 100 to 3000
CNc1nc(N[C@H]2CN(C)C[C@@H]2OC)nc2nc3c(c(C)c12)CCC3 [Example 423] | 0.01 to 0.1 | 0.1 to 1 | 0.1 to 1 | –
CNc1nc(N[C@H]2CNCC[C@H]2OC)nc2nc(C)cc(C)c12 [Example 516, N^2-((3S,4R)-4-methoxypiperidin-3-yl)-N^4,5,7-trimethylpyrido[2,3-d]pyrimidine-2,4-diamine] | 0.01 to 0.1 | 0.1 to 1 | 0.1 to 1 | –
Cc1c(Cl)c(-c2ccccc2)nc2nc(NC3CCN(C)CC3)nc(N)c12 [Example 48, 6-chloro-5-methyl-N2-(1-methylpiperidin-4-yl)-7-phenylpyrido[2,3-d]pyrimidine-2,4-diamine] | 1 to 10 | 1 to 10 | 1 to 10 | –
CC(=O)Nc1ccccc1CN1CCC(Nc2nc(N)c3c(C)cc(C)nc3n2)CC1 [Example 486] | 0.1 to 1 | 1 to 10 | 1 to 10 | 100 to 3000
Cc1c2c(nc3nc(NC4CCNCC4)nc(N)c13)CCC2 [Example 577] | 0.01 to 0.1 | 1 to 10 | 1 to 10 | 100 to 3000
Cc1c2c(nc3nc(NC4CCN(Cc5ccc(C#N)cc5O)CC4)nc(N)c13)CCC2 [Example 526, 4-((4-((4-amino-5-methyl-7,8-dihydro-6H-cyclopenta[5,6]pyrido[2,3-d]pyrimidin-2-yl)amino)piperidin-1-yl)methyl)-3-hydroxybenzonitrile] | 0.01 to 0.1 | 0.1 to 1 | 1 to 10 | 100 to 3000
Cc1nc2nc(NC3CCN(Cc4cccc(F)c4O)CC3)nc(N)c2c2c1CCC2 [Example 531] | 0.1 to 1 | 1 to 10 | 1 to 10 | 100 to 3000
Cc1c2c(nc3nc(NC4CCN(Cc5cccc(F)c5O)CC4)nc(N)c13)CCC2 [Example 532] | 0.01 to 0.1 | 0.1 to 1 | 1 to 10 | 100 to 3000

SMILES | EC (100% of 200 uM G418 response) [1] [µM] | EC (50% of 200 uM G418 response) [2] [µM] | EC (100% of 200 uM G418 response) [2] [µM] | Emax [1] [%]
CNc1nc(N[C@H]2CN(C)C[C@H]2F)nc2nc3c(c(C)c12)CCC3 [Example 233, N^2-((3S,4R)-4-fluoro-1-methylpyrrolidin-3-yl)-N^4,5-dimethyl-7,8-dihydro-6H-cyclopenta[5,6]pyrido[2,3-d]pyrimidine-2,4-diamine] | 0.1 to 1 | 0.1 to 1 | – | 100 to 3000
CNc1nc(N[C@@H]2CCNC2)nc2nc(C)c3c(c12)CCC3 [Example 304] | 0.1 to 1 | 1 to 10 | 1 to 10 | –
CNc1nc(N[C@H]2CNC[C@H]2F)nc2nc3c(c(C)c12)CCC3 [Example 343] | 0.1 to 1 | 1 to 10 | 1 to 10 | 100 to 3000
Cc1nc2nc(NC3CCN(Cc4ccncc4)CC3)nc(N)c2c2c1CCC2 [Example 529] | 0.1 to 1 | 1 to 10 | – | 100 to 3000
Cc1cc(C)c2c(N)nc(NC3CCNCC3(C)C)nc2n1 (stereo not shown) [Example 212] | 1 to 10 | – | – | 100 to 3000
CN1CCC(Nc2nc(N)c3ccc(C(F)(F)F)nc3n2)CC1 [Example 18, N^2-(1-methylpiperidin-4-yl)-7-(trifluoromethyl)pyrido[2,3-d]pyrimidine-2,4-diamine] | 10 to 100 | – | – | 100 to 3000
CNc1nc(N[C@H]2CN(C)C[C@@H]2O)nc2nc(C)c(Cl)c(C)c12 [Example 629] | 1 to 10 | – | – | –
COCCNc1nc(NC2CCN(C)CC2)nc2nc(C)cc(C)c12 [Example 269] | 1 to 10 | – | – | 100 to 3000
Cc1cc(C)c2c(N)nc(NC3CCCN(C)CC3)nc2n1 (stereo not shown) [Example 179] | 1 to 10 | – | – | 100 to 3000
Cc1nc2nc(NC3CCN(C)CC3)nc(N)c2c(C)c1-c1cnn(C)c1 [Example 678] | > 100 | – | – | 0 to 100
CCNc1nc(N[C@H]2CN(C)C[C@@H]2O)nc2nc(C)cc(C)c12 [Example 391] | 0.1 to 1 | – | – | 100 to 3000
Cc1cc(C)c2c(N)nc(NC3CCN(C4CC4)CC3)nc2n1 [Example 146] | 1 to 10 | – | – | 100 to 3000
Cc1cc(C)c2c(NCC(N)=O)nc(NC3CCN(C)CC3)nc2n1 [Example 314] | > 31.6 | – | – | 0 to 100
Nc1nc(NCCCN2CCOCC2)nc2nc(-c3ccccc3)c3c(c12)CCC3 [Example 129, N^3-(3-morpholinopropyl)-6-phenyl-8,9-dihydro-7H-cyclopenta[4,5]pyrido[2,3-d]pyrimidine-1,3-diamine] | 1 to 10 | – | – | –
CCN1CCC(Nc2nc(N)c3c(C)cc(C)nc3n2)CC1 [Example 213] | 1 to 10 | – | – | 100 to 3000
Cc1cc(C)c2c(N)nc(NC3(CN(C)C)CC3)nc2n1 [Example 219, N^2-(1-((dimethylamino)methyl)cyclopropyl)-5,7-dimethylpyrido[2,3-d]pyrimidine-2,4-diamine] | > 31.6 | – | – | 0 to 100
Cc1cc(C)c2c(N)nc(NC3CC4CNCC4C3)nc2n1 (stereo not shown) [Example 205] | 1 to 10 | – | – | 100 to 3000
CNc1nc(N[C@H]2CN(C3CCC3)C[C@H]2F)nc2nc(C)cc(C)c12 [Example 627] | 10 to 100 | – | – | 100 to 3000
